Experimental data from patent US8871900B2, “Fibroblast growth factor (FGF) analogs and uses thereof” (University of Rochester, priority 2008, dated 2014).
Peptide text beside a SMILES is read from it.

Assays:
[1] = system: BM cells; experiment: BM colony formation in MethoCult 3 D culture; format: cell-based, mouse (Balb/c)
Text: Survival of ARS depends on rapid reconstitution of hematopoiesis after IR-induced myelosuppression. […] However, the timing and mechanism of effect on BM stem cells is unknown. Also unclear are the number of FGFRs on hematopoietic stem cells (HSCs) and their role in reconstitution after IR. […] To characterize the effects of FGF-P on BM, the study approach was to obtain fresh BM (including both HSCs and MSCs) from Balb/c mice, and culture it under varying conditions (3 D culture or 2 D round-bottom well) in triplicate for 1-3 weeks. The BM cells were stimulated with FGF-P at different doses (as test) or with EPO, TPO, GM-CSF or native FGF2 (as a positive control). The cultures were examined using several methods including colony count, photography, CyQUANT® assay and ^3H-TdR incorporation.

[2] = target: human FGFR1 (Homo sapiens, UniProt P11362); experiment: Biacore binding assay
Chain of human FGFR1 (P11362 22-822): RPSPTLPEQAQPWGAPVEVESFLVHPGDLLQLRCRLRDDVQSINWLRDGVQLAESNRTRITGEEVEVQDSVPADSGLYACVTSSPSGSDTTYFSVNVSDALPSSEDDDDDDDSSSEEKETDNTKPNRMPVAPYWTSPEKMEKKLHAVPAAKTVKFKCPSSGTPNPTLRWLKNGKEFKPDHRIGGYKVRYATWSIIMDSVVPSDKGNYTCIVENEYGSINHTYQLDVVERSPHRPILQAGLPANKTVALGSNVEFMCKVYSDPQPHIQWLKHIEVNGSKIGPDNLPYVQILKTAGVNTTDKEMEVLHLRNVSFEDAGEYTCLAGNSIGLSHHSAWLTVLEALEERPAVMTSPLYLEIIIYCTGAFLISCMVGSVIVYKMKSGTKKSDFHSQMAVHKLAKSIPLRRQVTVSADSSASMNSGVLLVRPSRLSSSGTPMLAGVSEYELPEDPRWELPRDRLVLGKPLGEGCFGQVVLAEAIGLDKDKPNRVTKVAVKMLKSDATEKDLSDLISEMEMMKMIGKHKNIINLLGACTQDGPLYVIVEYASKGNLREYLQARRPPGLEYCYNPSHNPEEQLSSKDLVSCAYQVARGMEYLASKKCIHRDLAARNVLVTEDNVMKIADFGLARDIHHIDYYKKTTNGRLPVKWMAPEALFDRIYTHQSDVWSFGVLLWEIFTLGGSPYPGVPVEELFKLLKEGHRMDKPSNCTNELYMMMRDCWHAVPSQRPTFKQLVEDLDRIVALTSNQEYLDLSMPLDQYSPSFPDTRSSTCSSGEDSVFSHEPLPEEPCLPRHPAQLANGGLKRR

[3] = system: proliferating crypts of small intestine; experiment: Crypt assay of small intestine after sub-TBI (H&E, BrdU, villi length); format: in vivo, mouse (Balb/c, C57BL/6)
Text: Enhanced proliferation of crypts in small intestine: The epithelium of the small intestine has a rapid turnover, renewing every 3-7 days. The stem cells are located ⅓ of the way up the […] and active mitosis can be seen above growing into the villus and below, forming the crypt. There are no definitive markers available to identify the stem cells, and thus the number of these cells in each crypt are unknown. When the bowel is irradiated, the number of crypts remains constant up to a dose just below the LD50/7. Above that dose, there is a log-linear decrease in the number of crypts, usually measured at 3.5 days. […] Data from the crypt assay can be augmented with injection of BrdU. BrdU can be given to animals at one or more times after irradiation to determine the rate of proliferation and rate of elongation of villi.
FGF-P was then repeated daily for 2 days. At 80 hr post-IR, BrdU (120 mg/kg) was injected ip and 4 hours later (about 3.5 days post-IR), the mice were sacrificed and the duodenal, jejunal and ileal segments (3-4 pieces/segment) were harvested, fixed in formalin, processed in paraffin blocks, cut in transverse sections of the full segment circumference (5 μm thick) and stained with H&E or anti-BrdU following the standard immunochemistry procedure (23). The proliferating crypts were defined as containing 10 or more adjacent chromophilic non-Paneth cells and a lumen. The circumference of a transverse cross-section of the intestine was used as a unit. The number of proliferating crypts was counted in each circumference. At least 10 circumferences were scored per mouse and 4-5 mice were used to generate each data point.
The villi length of duodenum, jejunum and ileum was measured using a customized Imaging Pro program.

[4] = Plasma endotoxin after sub-TBI (tachypleus amebocyte lysate kit); format: in vivo, mouse (Balb/c, C57BL/6); conditions: Balb/c, 10.5 Gy sub-TBI, 3.5 days post-IR; FGF-P treated (vehicle 3.32, normal 0.45)
Method: Some studies have employed bacterial culture of liver samples. Bacterial translocation occurs due to mucosal barrier changes (1) at the level of the basement membrane and (2) bowel mucous volume and composition. The most reliable and most clinically applicable method to measure bacterial translocation is the endotoxin assay. The level of plasma endotoxin 3.5 days post-IR was measured with a commercialized kit that utilized tachypleus amebocyte lysate to sensitively quantitate endotoxin at extremely low levels (<0.01 EU/ml); and 4) body weight (BW): poor nutrition and water absorption will result in reduced body weight. The rate and severity of weight loss, as well as the pace of body weight recovery, will be measured.
2) A standard scoring scale was used to evaluate stool formation (diarrhea). The bowel was extracted from the abdomen and visually inspected. Formed stool was easily distinguished from semi-solid and liquid stool as it passed from the ascending to descending colon. FIGS. 7B and 7C show the irradiated bowel in controls compared with FGF-P-treated Balb/c mice. The FGF-P was given at a dose of 2 mg/kg im for three daily doses beginning 15 min after irradiation. Animals were sacrificed 3.5 days after 10.5 Gy sub-TBI.

[5] = system: ERK Pathway; experiment: Phosphorylation of ERK pathway; format: cell-based
[6] = system: GM-CSF; experiment: Plasma cytokine arrays after IR; format: in vivo, mouse; conditions: post-IR
Text: A 96 cytokine membrane array (RayBioTech, Norcross, Ga.) and a Luminex Multiple cytokine beads array (Panomics, Fremont, Calif.) were used to determine the alteration of a panel of plasma cytokines after IR and the effect of FGF-P on reversing the altered pattern. […]-P also exerts homeostatic effect to keep cytokine level towards normal balance.

[7] = system: BM progenitors; experiment: BM progenitors (CD24, CD34) by flow cytometry after in vivo FGF-P; parameters: species or system mouse; conditions: in vivo administration following radiation
Text: To determine if the stem cells are better regenerated, freshly harvested BM cells were stained with CD24, CD34 (two critical markers for BM multi-potential progenitors) and TER119 (a marker for reticulcoytes), and then analyzed with flow cytometry. […] This is consistent with the above in vitro data. After IR, there appears a very active generation of BM progenitors, a rebound phenomenon, similar to the intestine crypts that actively regenerate following IR to compensate for lost villi.

CC(C)C[C@H](NC(=O)[C@H](C)NC(=O)[C@@H](NC(=O)[C@H](Cc1ccc(O)cc1)NC(=O)[C@H](Cc1c[nH]c2ccccc12)NC(=O)[C@H](CO)NC(=O)[C@H](CO)NC(=O)[C@H](Cc1ccc(O)cc1)NC(=O)[C@H](CCCCN)NC(=O)[C@H](CCCNC(=N)N)NC(=O)[C@H](CO)NC(=O)[C@H](CCCNC(=N)N)NC(=O)[C@H](Cc1ccc(O)cc1)NC(=O)[C@@H](N)CS)C(C)C)C(=O)N[C@@H](CCCCN)C(=O)N[C@@H](CCCNC(=N)N)C(=O)N[C@@H](CS)C(=O)O [FGF-P, CYRSRKYSSWYVALKRC] (H-CYRSRKYSSWYVALKRC-OH; N-terminus and C-terminus assumed)
colony formation of BM cells [1]: enhanced colony formation of BM cells in a dose dependent manner
binding to human FGFR1 [2]: binding of FGF-P to human FGFR1
numbers of proliferating crypts in the bowel ([3]; 10.5 Gy sub-TBI, about 3.5 days post-IR, FGF-P 2 mg/kg im, repeated daily for 2 days): increased
crypt survival ([3]; 10.5 Gy sub-TBI, FGF-P 2 mg/kg im): approximately doubles crypt survival
proliferating crypts, BrdU staining method ([3]; 12 Gy, P<0.05): A similar result was obtained using the BrdU staining method
number of proliferating crypts ([3]; 12 Gy, duodenum, jejunum, ileum, P<0.05): higher number of proliferating crypts in duodenum, jejunum and ileum
crypt numbers in the ileum ([3]; Balb/c, 3.5 days after 12 Gy, FGF-P given after irradiation): Higher numbers of crypts
villi length ([3]; C57BL/6, 16 Gy sub-TBI, P<0.05): better preserved villi length in the duodenum and jejunum
crypt numbers ([3]; C57BL/6, doses as high as 16 Gy sub-TBI): improved crypt numbers in all sections of C57BL/6 small bowel
plasma endotoxin level (mean) [4]: 2.12 EU/ml
phosphorylation of ERK pathway [5]: triggers phosphorylation of ERK Pathway
plasma GM-CSF [6]: increased the IR-reduced GM-CSF
number of BM progenitors (CD24, CD34) [7]: increased the number of BM progenitors following radiation
